Assay results from patent US10653685B2, “Pharmaceutical compositions and methods for the treatment of hypoxia-related diseases” (priority 2015, dated 2020).

Key:
[1] = test system: rat primary heart cells; test: LDH released by rat primary heart cells under hypoxia; assay type: cell-based; details: hypoxia 3 hours
Description: (§1) Sprague Dawley rat hearts (1-2 days old) were sterilely removed and bathed three times in Ca^++ and Mg^++—free PBS to remove excess blood cells. The hearts were minced to small fragments and then agitated in a proteolytic enzyme-RDB solution (Life Science research, Inst., Nes Ziona, Israel) prepared from a fig tree extract as described previously (Brik et al., Basic Res. Cardiol. 85:237-246, 1990), Shneyvays et al., J Mol Cell Cardiol. 33:1249-1261, 2001). The RDB-solution was then diluted 1:200 in PBS at 25° C. for a few cycles of 10 min each. The supernatant suspension containing dissociated cells, to which medium containing 10% horse serum was added, was centrifuged at 500 g for 5 min. After centrifugation, the supernatant phase was discarded, and cells were re-suspended in Dulbecco's modified Eagle medium supplemented with 10% heat-inactivated horse serum and 0.5% chick embryo extract. Cell suspensions were diluted to 1×10^6 cells/ml, and […] samples were placed in 24 well plates (4 plates) collagen/gelatin coated plastic culture dishes. […] The day after, Cells were washed to remove dead cells, and growth medium was replaced, as well as every 2 days and before experiment initiation, this time with glucose-free PBS. The experiments were then performed in vitro on these cardiomyocyte cultures after 5 days following the day of procedure beginning. Right before Hypoxia experiments, cultures wells were incubated in a humidified atmosphere incubator of 5% CO2 and 95% air at 37° C. for 30 minute steady state.
(§2) Approximately 3×10^5 cardiomyocytes/well from neonatal rat hearts were cultured with glucose-free PBS and exposed to hypoxia (oxygen and glucose deprivation) for 180 min. using a procedure essentially as described by O. Golan et al. (Biochemical pharmacology, 81 (2011), pp. 1219-1227)
(§3) In brief, Hypoxia was performed in a closed chamber by replacement of air with 100% Argon. During hypoxia Oxygen levels in the N2 atmosphere was below 1%. And after 180 min. of hypoxia, the pO2 in the PBS was <0.4 Torr. Hypoxic stress injury was determined based on the activity of lactate dehydrogenase (LDH) and creatine kinase (CK) released from the cells, at the end of 3 hr. hypoxic phase, and consequently after additional 2 hr. of reoxygenation.
(§4) For both LDH and CK measurements, 25 μL aliquots of each well incubated for 180 min under hypoxia, were transfer to clean 24 wells trays, which were placed within the automatic spectrophotometer and the product of the enzyme activity was measured through a wavelength of 340 nm at 30° C., under shaking. Results were expressed relatively to the control.
Lactate dehydrogenase (LDH) activity was determined within the cardiac cell medium (PBS) using LDH-L kit (Thermo Trace, Melbourne, Australia). […]

[2] = test system: heart cells; details: maximum protection, WO 2013/003445; cited from earlier work
[3] = test system: rat primary heart cells; test: CK released by rat primary heart cells under hypoxia; assay type: cell-based; details: hypoxia 3 hours
Description: as §1, §2, §3
as §4, with “Results were expressed relatively to the control.” left out
Creatine Kinase (CK) activity was determined within the cardiac cell medium (PBS) using CK-NAC Reagent (Creatine kinase, activated by N-acetyl cysteine) from Thermo Fisher Scientific Inc. Middletown, Va. […]

## c1ccc(CN(CCN(Cc2ccccn2)Cc2ccccn2)Cc2ccccn2)nc1 [TPEN, N,N,N′,N′-tetrakis-(2-pyridylmethyl)-ethylenediamine]
[1]; sodium alginate 0, TPEN 0.3 μM
  LDH Reduction: 39.5%
  Mean (LDH released from rat heart cells): 0.0409
[1]; sodium alginate 0, TPEN 1 μM
  LDH Reduction: 10.0%
  Mean (LDH released from rat heart cells): 0.0647
[2]
  protection from hypoxia stress injury: ≤ 70%
[3]; sodium alginate 0, TPEN 0.3 μM
  CK Reduction: 46.6%
  Mean (CK released from rat heart cells): 0.0411
[3]; sodium alginate 0, TPEN 1 μM
  CK Reduction: 14.3%
  Mean (CK released from rat heart cells): 0.0643
